Data as given in US12180158B1, “Crystalline fumarate salts of n-ethyl-2-(5-fluoro-1H-indol-3-yl)-n-methylethan-1-amine” (Gilgamesh Pharmaceuticals, Inc., priority 2023, dated 2024).

Assays:
[1] = Exposure of dry cake to humidity, solid form checked by XRPD; format: physicochemical; details: for XRPD pattern, dry cake exposed to humidity: monofumarate solids exposed to humidity (90% RH/30° C.), monofumarate
Method: The two different polymorphic forms of N-ethyl-2-(5-fluoro-1H-indol-3-yl)-N-methylethan-1-amine monofumarate were discovered by reactive crystallization from various solvents. These crystallization experiments were performed by subjecting the in-situ created salt, made by evaporating an ethanol solution of free base and fumaric acid, to vigorous agitation in 10 volumes of the selected solvent. The agitated mixtures were heated to 45-50° C. and cooled to room temperature as necessary to induce crystallization. Form 1 was the predominant form from acetone, and the mixed ethanol/MTBE solvent system, whereas, Form 2 was produced from IPA solvent (see Table 7 below).
The polymorphic Form 1 of N-ethyl-2-(5-fluoro-1H-indol-3-yl)-N-methylethan-1-amine hemifumarate was discovered by reactive crystallization from various solvents. These crystallization experiments were performed by subjecting the in-situ created salt, made by evaporating an ethanol solution of free base and 0.55 equivalents of fumaric acid, to vigorous agitation in 10 volumes of the selected solvent. The agitated mixtures were heated to 45-50° C. and cooled to room temperature as necessary to induce crystallization. Only one form was observed from the brief crystallization screening study, as depicted in Table 10 below.

[2] = Dynamic Vapor Sorption (DVS) isotherm; format: physicochemical; details: 25° C., FIG. 19
Method: Dynamic Vapor Sorption (DVS) was performed using a Q5000SA. The sample (5-15 mg) was loaded into a metallic quartz sample pan, suspended from a microbalance, and exposed to a humidified stream of nitrogen gas. Weight changes were relative to a matching empty reference pan opposite the sample, suspended from the microbalance. The sample was held for a minimum of 10 min at each level and only progressed to the next humidity level if there was <0.002% change in weight between measurements (interval: 5 s) or 45 min had elapsed (for 5-65% RH) or 2 h had elapsed (for 80 and 95% RH). The following programs were used: • 1—Equilibration at 50% RH • 2—50% to 5%. (50%, 35%, 20%, and 5%) • 3—5% to 95% (5%, 20%, 35%, 50%, 65%, 80%, and 95%) • 4—95% to 5% (95%, 80%, 65%, 50%, 35%, 20%, and 5%) • 5—5% to 50% (5%, 20%, 35%, and 50%) • 1—Equilibration at 50% RH • 2—50% to 2%. (50%, 40%, 30%, 20%, 10%, and 2%) • 3—2% to 75% (2%, 10%, 20%, 30%, 40%, 50%, 60%, 70% and 75%) • 4—75% to 2% (75%, 70%, 60%, 50%, 40%, 30%, 20%, 10% and 2%) • 5—2% to 50% (2%, 10%, 20%, 30%, 40% and 50%) • 1—Equilibration at 50% RH • 2—50% to 2%. (50%, 40%, 30%, 20%, 10%, and 2%) • 3—2% to 65% (2%, 10%, 20%, 30%, 40%, 50%, 60% and 65%) • 4—65% to 2% (65%, 60%, 50%, 40%, 30%, 20%, 10% and 2%) • 5—2% to 50% (2%, 10%, 20%, 30%, 40% and 50%). […]

CCN(C)CCc1c[nH]c2ccc(F)cc12.O=C(O)/C=C/C(=O)O [monofumarate Form 1, N-ethyl-2-(5-fluoro-1H-indol-3-yl)-N-methylethan-1-amine monofumarate]
XRPD pattern, dry cake exposed to humidity [1]: Form 1

CCN(C)CCc1c[nH]c2ccc(F)cc12.O=C(O)/C=C/C(=O)O [monofumarate Form 2, N-ethyl-2-(5-fluoro-1H-indol-3-yl)-N-methylethan-1-amine monofumarate]
XRPD pattern, dry cake exposed to humidity [1]: slowly converted to Form 1

CCN(C)CCc1c[nH]c2ccc(F)cc12.Cl [hydrochloride Form 1, N-ethyl-2-(5-fluoro-1H-indol-3-yl)-N-methylethan-1-amine hydrochloride]
DVS isotherm behaviour (moisture sorption equilibrium) [2]: did not reach equilibrium at 75% RH

N-ethyl-2-(5-fluoro-1H-indol-3-yl)-N-methylethan-1-amine hemifumarate [hemifumarate Form 1]
XRPD pattern, Humid ([1]; hemi-fumarate dry solid from EtOH:MTBE (1:1 vol.), exposed to humidity): deliquescent
